Tests used:
[1] = target: 5-hydroxytryptamine receptor 7 (Homo sapiens, UniProt P34969); experiment: Binding affinity against 5-Hydroxy tryptamine 7 receptor
D(2) dopamine receptor = D(2) dopamine receptor (Homo sapiens, UniProt P14416); experiment: Binding affinity against D2L receptor
[2] = target: 5-hydroxytryptamine receptor 2C (Rattus norvegicus) (UniProt P08909); experiment: Binding affinity against 5-Hydroxy tryptamine 2C receptor
[3] = target: Adrenergic receptor alpha-1 (Rattus norvegicus); experiment: Binding affinity against Alpha1 adrenergic receptor

Sequence of 5-hydroxytryptamine receptor 7 (P34969 whole entry): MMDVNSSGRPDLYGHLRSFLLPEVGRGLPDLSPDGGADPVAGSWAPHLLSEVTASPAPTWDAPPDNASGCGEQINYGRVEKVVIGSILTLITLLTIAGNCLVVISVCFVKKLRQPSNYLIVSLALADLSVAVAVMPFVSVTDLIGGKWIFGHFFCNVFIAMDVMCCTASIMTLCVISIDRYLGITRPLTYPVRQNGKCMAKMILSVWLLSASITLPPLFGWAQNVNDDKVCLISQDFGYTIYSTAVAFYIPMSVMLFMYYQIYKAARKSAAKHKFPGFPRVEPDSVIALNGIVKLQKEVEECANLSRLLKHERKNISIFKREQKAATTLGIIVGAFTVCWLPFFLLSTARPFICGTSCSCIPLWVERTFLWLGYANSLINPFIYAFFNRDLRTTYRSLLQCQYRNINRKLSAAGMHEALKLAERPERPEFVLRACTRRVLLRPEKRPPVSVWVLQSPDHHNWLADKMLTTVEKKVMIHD
Sequence of 5-hydroxytryptamine receptor 2C (Rattus norvegicus) (P08909 whole entry, looked up): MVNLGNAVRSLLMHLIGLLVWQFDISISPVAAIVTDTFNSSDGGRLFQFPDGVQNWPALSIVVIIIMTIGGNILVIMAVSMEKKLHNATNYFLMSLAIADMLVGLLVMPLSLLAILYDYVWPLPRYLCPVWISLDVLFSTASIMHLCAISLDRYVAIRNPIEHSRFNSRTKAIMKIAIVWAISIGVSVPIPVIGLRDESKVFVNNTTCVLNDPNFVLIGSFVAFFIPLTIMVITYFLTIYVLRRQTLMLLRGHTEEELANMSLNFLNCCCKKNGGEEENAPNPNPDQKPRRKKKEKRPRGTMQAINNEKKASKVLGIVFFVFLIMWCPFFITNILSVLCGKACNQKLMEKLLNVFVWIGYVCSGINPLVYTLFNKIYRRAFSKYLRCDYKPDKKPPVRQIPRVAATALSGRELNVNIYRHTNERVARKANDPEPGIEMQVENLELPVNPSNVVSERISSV
Sequence of D(2) dopamine receptor (P14416 whole entry): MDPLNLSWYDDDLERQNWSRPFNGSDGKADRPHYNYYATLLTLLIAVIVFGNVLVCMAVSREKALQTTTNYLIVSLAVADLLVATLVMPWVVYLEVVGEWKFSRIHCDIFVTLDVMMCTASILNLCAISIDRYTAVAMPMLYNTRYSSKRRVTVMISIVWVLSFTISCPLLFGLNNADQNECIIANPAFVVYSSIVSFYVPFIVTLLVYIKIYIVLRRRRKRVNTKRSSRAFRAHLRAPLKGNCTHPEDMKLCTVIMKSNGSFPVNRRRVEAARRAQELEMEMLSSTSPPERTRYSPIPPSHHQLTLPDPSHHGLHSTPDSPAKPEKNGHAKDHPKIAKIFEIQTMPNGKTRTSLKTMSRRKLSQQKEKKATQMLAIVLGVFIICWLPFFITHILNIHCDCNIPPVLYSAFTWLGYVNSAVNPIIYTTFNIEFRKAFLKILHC

Row | Ki [1] [nM] | Ki (D(2) dopamine receptor) [nM] | Ki [2] [nM] | Ki [3] [nM] | Compound
1 | 33 | – | – | – | C[C@H](Nc1cc(NCCc2ccccc2)ncn1)c1ccccc1
2 | 0.4 | – | – | – | C[C@H](Nc1ccnc(NCCOc2ccccc2)c1)c1ccccc1
3 | 0.4 | – | – | – | C[C@H](Nc1ccnc(NCCc2ccc(F)cc2)c1)c1ccccc1
4 | 3 | – | – | – | C[C@H](Nc1cc(NCCc2ccccc2)ccn1)c1ccccc1
5 | 16 | – | – | – | C[C@H](Nc1cncc(NCCc2ccc(F)cc2)c1)c1ccccc1
6 | 13 | – | – | – | C[C@H](Nc1cncc(NCCc2ccccc2)c1)c1ccccc1
7 | > 1000 | – | – | – | C[C@H](Nc1cccc(NCCOc2ccccc2)n1)c1ccccc1
8 | 5 | – | – | – | C[C@H](Nc1cc(NCCc2ccc(F)cc2)ncn1)c1ccccc1
9 | > 1000 | – | – | – | C[C@H](Nc1cccc(NCCOc2ccccc2)c1)c1ccccc1
10 | 0.3 | – | – | – | C[C@H](Nc1ccnc(NCCc2ccccc2)c1)c1ccccc1
11 | > 1000 | – | – | – | C[C@H](Nc1cccc(NCCc2ccccc2)c1)c1ccccc1
12 | 5 | – | – | – | C[C@H](Nc1cc(NCCOc2ccc(F)cc2)ncn1)c1ccccc1
13 | 0.3 | > 1000 | – | – | C[C@H](Nc1ccnc(NCCOc2ccc(F)cc2)n1)c1ccccc1
14 | 0.4 | > 1000 | 13 | – | C[C@H](Nc1cc(NCCOc2ccc(F)cc2)ccn1)c1ccccc1
15 | 0.4 | – | – | – | C[C@H](Nc1cc(NCCOc2ccccc2)ccn1)c1ccccc1
16 | 4 | > 1000 | 476 | – | C[C@H](Nc1cncc(NCCOc2ccc(F)cc2)c1)c1ccccc1
17 | 0.6 | – | – | – | C[C@H](Nc1ccnc(NCCc2ccccc2)n1)c1ccccc1
18 | 2 | – | – | – | C[C@H](Nc1ccnc(NCCOc2ccccc2)n1)c1ccccc1
19 | 4 | – | – | – | C[C@H](Nc1cc(NCCc2ccc(F)cc2)ccn1)c1ccccc1
20 | 4 | – | – | – | C[C@H](Nc1cncc(NCCOc2ccccc2)c1)c1ccccc1
21 | > 1000 | – | – | – | C[C@H](Nc1cccc(NCCc2ccccc2)n1)c1ccccc1
22 | 0.2 | 370 | 15 | – | C[C@H](Nc1ccnc(NCCOc2ccc(F)cc2)c1)c1ccccc1
23 | 6 | – | – | – | CC(Nc1nccc(NCCc2ccccc2)n1)c1ccccc1 (racemic)
24 | 1 | > 1000 | 40 | 57 | CC(Nc1nccc(NCCOc2ccc(F)cc2)n1)c1ccccc1 (racemic)
25 | 6 | – | – | – | CC(Nc1ccnc(NCCc2ccc(F)cc2)n1)c1ccccc1 (racemic)
